Data reported in patent US20170028013A1 (Teva Pharmaceutical Industries, Ltd., priority 2015, published 2017).

Tests used:
[1] = Laq-Na dose incorporated in a clear GA product at increased amino acid concentration; format: physicochemical
Method: To 6.015 g of Solution C additional amounts of Laq-Na were added drop by drop at stirring at RT. The solutions obtained were clear at 2-8° C. and at RT at Laq-Na concentrations 1.28, 1.49, 1.75 mg/mL.

[2] = in vivo; cited from earlier work
[3] = Saturated solution of laquinimod acid in 0.1 M PBS; format: physicochemical; conditions: 0.1 M PBS pH 7.4, RT
Method: A saturated solution of laquinimod acid […] was prepared by dissolving of 4.2283 g of Laq-acid in 0.1 M PBS (pH 7.4, 700 mL) for 3.5 h at RT. After decantation of the suspension the clear upper part was filtered through a paper (Whatman) filter. This clear, filtered solution contained about 1.5 mg/mL of laquinimod acid (Solution A).

[4] = pH optimum for stability and solubility; format: physicochemical
Excerpt: Developing formulations containing laquinimod and GA is particularly difficult because laquinimod and GA have different pH optimums in terms of stability and solubility and because of undesired effects, mainly gelation or the formation of turbid formulations in the presence of various buffers, solvents and surface active agents.

[5] = system: acute experimental autoimmune encephalomyelitis (aEAE) model; conditions: in vivo; cited from earlier work
multiple sclerosis (MS) = conditions: cited from earlier work

Compound: CCN(C(=O)c1c(O)c2c(Cl)cccc2n(C)c1=O)c1ccccc1 [Laquinimod sodium]
- Laq-Na possible to incorporate ([1]; glycine 0.6 mg/mL): 1.05 to 1.07 mg/mL
- Laq-Na possible to incorporate ([1]; glycine 4.2 mg/mL): 1.51 mg/mL
- Laq-Na possible to incorporate ([1]; lysine 1.39 mg/mL): 1.06 to 1.09 mg/mL
- Laq-Na possible to incorporate ([1]; lysine 3.38 mg/mL): 1.88 mg/mL
- Laq-Na possible to incorporate ([1]; proline 0.9 mg/mL): 1.06 to 1.09 mg/mL
- Laq-Na possible to incorporate ([1]; proline 2.45 mg/mL): 1.55 mg/mL
- Oral bioavailability [2]: high

Compound: CCN(C(=O)c1c(O)c2c(Cl)cccc2n(C)c1=O)c1ccccc1 [Laquinimod, N-ethyl-N-phenyl-1,2-dihydro-4-hydroxy-5-chloro-1-methyl-2-oxoquinoline-3-carboxamide]
- Laquinimod acid in the clear filtered saturated solution [3]: about 1.5 mg/mL
- Solubility and stability versus pH [4]: more soluble and stable in alkaline media
- Efficacy in aEAE model [5]: effective
- Development of active MRI lesions (multiple sclerosis (MS); relapsing MS): reduce development of active MRI lesions

Compound: L-glutamic acid polymer with L-alanine, L-lysine and L-tyrosine, acetate (salt) [Glatiramer acetate]
- Relapse rates, progression of disability, new MRI lesions (multiple sclerosis (MS); daily subcutaneous injections, 20 mg/injection): reduce relapse rates
- Efficacy in treating multiple sclerosis (multiple sclerosis (MS); in vivo): effective
